Data set [1] has as its system XBP1s protein in MDA-MB-231 cells. The experiment in a line: Western blot of XBP1s protein level, MDA-MB-231. It counts as cell-based, human. The procedure:
(§1) A549 cells and MDA-MB-231 Cells were harvested and seeded into 6-well plates with a density of 8 × 10^5 cells per well and cultured overnight. […]. Protein concentrations were measured using a BCA protein assay kit (Thermo Scientific, 23227) and all samples were diluted to the same protein concentration. Each sample with 40 μg of total protein was loaded onto a 4–15% MP stain-free gel (Bio-Rad, 4568085) and separated in tris-glycine-SDS running buffer. The proteins were transferred onto a 0.45 μm PVDF membrane (Bio-Rad, 1704274) using the Trans-Blot Turbo Transfer System with the preprogrammed standard SD protocol (up to 1.0 A; 25 V; 30 min). Membranes were blocked with 5% skim milk (Roth, T145.2) in PBST buffer, then incubated with primary antibody IRE1α (Cell Signaling Technology, #3294 s, 1:1000), XBP1s (Cell Signaling Technology, #12782 s, 1:1000) GAPDH (Proteintech, 10494-1-AP, 1:6000) overnight at 4 °C with shaking. After incubation, membranes were washed with PBST and incubated with the Goat Anti-Rabbit (Proteintech, SA00001-2, 1:6000) antibody at room temperature for 1 h. After washing with PBST, the membranes were visualized using Amersham ECL Prime Western Blotting Detection Kit (Cytiva, RPN2232) and imaged with a ChemiDoc MP imaging system (Bio-Rad).
(In general: Immunoblotting shows a protein as a band on a membrane.)

For data set [2], the system named is XBP1s protein in A549 cells. The experiment in a line: Western blot of XBP1s protein level, A549. It counts as cell-based, human. As to conditions: 2 h compound, then 1 μg/mL tunicamycin 4 h. How it is done:
as §1

The next data set has as its target T1, p-IRE1α dimerization (Homo sapiens, UniProt O75460).
T1 construct: Human IRE1α kinase and RNase domain (residues 547–977) was subcloned into pLIB plasmid; His tag (with TEV cleavage site) (N, cleaved yes); made in house; host or cells: Sf9 insect cells, baculovirus (Bac-to-Bac)
Put plainly: SDS-PAGE gel-based crosslinking assay. An excerpt:
sustained inhibition effect.”
Fig. R1. (A) Gel-based cleavage assay using the same condition as FRET assay. (B) Fig.4g of current manuscript, IA107 binding affinity towards p-IRE1α in MST assay.
-Using Refeyn mass photometry of cross-linked IRE1α complexes, the authors observe that […]
However, this finding appears inconsistent with their crystallographic data showing separated RNase domains in dimeric IRE1. Since both kinase and RNase domain interactions contribute to the IRE1 dimer interface, one would expect at least some reduction in dimerization levels. It is also a bit worrying that the authors observe that one of the control compounds tested (G1749) also blocks dimerization/oligomerization in their assay (Extended Data Fig. 6d and 6e), as this compound was found not to affect the monomer/dimer equilibrium of IRE1 in PMID: 33318494.
We appreciate the Reviewer’s comments regarding the dimerization experiments. Our crystal […]
remain in the same dimer interaction interface as the apo p-IRE1α dimer. […]
observe dimerization inhibition by IA107 in the mass photometry assay nor SDS-PAGE gel-based crosslinking assay (Fig. R2A). […]
Fig. R2. […] Analyzed using the PDBePISA web server (PMID: 17681537). […]
inhibits IRE1α's RNase activity (measured as spliced XBP1 levels) in cells through engagement of IRE1α. […]

The test system of a further data set is A549 cells. Put plainly: Cell viability assay (CCK-8), A549. It counts as cell-based, human. As to conditions: A549; for inhibition at 50 µM: Homo sapiens, read-out: antiproliferation, inhibition at highest tested concentration. The procedure: (§2) Cells were collected and seeded into 96-well plates at a density of 2000–4000 cells per well and cultured overnight to allow cells to adhere. After adherence, cells were treated with the indicated compounds for 72 h. Then 20 μL CCK-8 solution (Vazyme, A311) was added into each well and incubated at 37 °C for 2–4 h. Absorbance was detected at a wavelength of 450 nm using a TECAN plate reader. Cell viability was calculated with the equation: Cell viability (%) = 100(Absorbance of treated cell - Absorbance of Blank control)/ (Absorbance of DMSO-treated cells - Absorbance of Blank control); Blank control: medium and CCK-8 solution, no cells.

The test system of a further data set is MDA-MB-468 cells. Put plainly: Cell viability assay (CCK-8), MDA-MB-468. The format is cell-based, human. The settings on record: MDA-MB-468; for inhibition at 50 µM: Homo sapiens, read-out: antiproliferation, inhibition at highest tested concentration. How it is done: as §2
The test system of a further data set is HCT 116 cells. Put plainly: Cell viability assay (CCK-8), HCT 116. It counts as cell-based, human. The settings on record: HCT 116; for inhibition at 50 µM: Homo sapiens, read-out: antiproliferation, inhibition at highest tested concentration. The procedure:
as §2

T1 sequence (O75460 547-977): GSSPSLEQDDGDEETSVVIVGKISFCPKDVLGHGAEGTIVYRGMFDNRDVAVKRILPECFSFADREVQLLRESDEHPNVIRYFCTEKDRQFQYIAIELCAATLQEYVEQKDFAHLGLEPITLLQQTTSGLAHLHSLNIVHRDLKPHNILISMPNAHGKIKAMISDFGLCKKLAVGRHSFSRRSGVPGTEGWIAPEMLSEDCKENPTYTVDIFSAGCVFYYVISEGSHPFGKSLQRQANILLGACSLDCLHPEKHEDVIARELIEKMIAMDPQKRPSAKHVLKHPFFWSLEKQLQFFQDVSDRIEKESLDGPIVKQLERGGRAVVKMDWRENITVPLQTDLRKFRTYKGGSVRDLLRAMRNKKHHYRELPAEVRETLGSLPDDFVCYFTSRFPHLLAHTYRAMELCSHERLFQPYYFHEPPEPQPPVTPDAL

Consider `CCOC(=O)Nc1cccc2c(Oc3ncccc3-c3ccnc(N[C@H]4CCCNC4)n3)c(C)ccc12` [Compound G1749, reference compound], for which the “effect on ER stress-induced XBP1s protein” value in data set [1] and in data set [2] was “partially inhibited” throughout.
On to `Cc1ccc2c(NS(=O)(=O)c3ccccc3Cl)cccc2c1Oc1ncccc1-c1ccnc(N[C@H]2CCCNC2)n1` [KIRA8], for which the “effect on p-IRE1α dimerization” value at p-IRE1α dimerization is on record as “inhibited dimerization”.
For `CCOC(=O)CCc1c(C)n(C(=O)c2ccccc2)c2ccc(Br)cc12` [IAPD1], the “cytotoxicity” value in the data set with A549 cells, in the data set on MDA-MB-468 cells and with HCT 116 cells was “did not show cytotoxicity” each time. The inhibition at 50 µM in the data set on A549 cells, in the data set on MDA-MB-468 cells and with HCT 116 cells was < 30% each time. For the same molecule, the “effect on ER stress-induced XBP1s protein” value in data set [1] and in data set [2] was “inhibited the XPB1s protein level” each time.
Regarding `Cc1c(CCC(=O)O)c2cc(Br)ccc2n1C(=O)c1ccccc1` [IA107], on p-IRE1α dimerization, the “effect on p-IRE1α dimerization” value is listed as “did not”. Moreover, the “cytotoxicity” value in the data set with A549 cells, in the data set with MDA-MB-468 cells and in the data set with HCT 116 cells was “did not show cytotoxicity” throughout. Moreover, the inhibition at 50 µM in the data set on A549 cells, in the data set with MDA-MB-468 cells and with HCT 116 cells was < 30% throughout.

For the origin of these results see paper PMC12475274, “Harnessing indole scaffolds to identify small-molecule IRE1α inhibitors modulating XBP1 mRNA splicing” (Nature Communications, 2025).
